# ChEMBL document CHEMBL3991601, “The target landscape of clinical kinase drugs” (Science, 2017)
# pKd: −log10 of the molar value. Active and inactive are the calls of the source.
# Assays:
# [1] = biological target: Non-receptor tyrosine-protein kinase TYK2 (Homo sapiens, UniProt P29597)
# [2] = biological target: T1, Peroxisomal acyl-coenzyme A oxidase 3 (Homo sapiens, UniProt O15254)
# T1 sequence (O15254 whole entry): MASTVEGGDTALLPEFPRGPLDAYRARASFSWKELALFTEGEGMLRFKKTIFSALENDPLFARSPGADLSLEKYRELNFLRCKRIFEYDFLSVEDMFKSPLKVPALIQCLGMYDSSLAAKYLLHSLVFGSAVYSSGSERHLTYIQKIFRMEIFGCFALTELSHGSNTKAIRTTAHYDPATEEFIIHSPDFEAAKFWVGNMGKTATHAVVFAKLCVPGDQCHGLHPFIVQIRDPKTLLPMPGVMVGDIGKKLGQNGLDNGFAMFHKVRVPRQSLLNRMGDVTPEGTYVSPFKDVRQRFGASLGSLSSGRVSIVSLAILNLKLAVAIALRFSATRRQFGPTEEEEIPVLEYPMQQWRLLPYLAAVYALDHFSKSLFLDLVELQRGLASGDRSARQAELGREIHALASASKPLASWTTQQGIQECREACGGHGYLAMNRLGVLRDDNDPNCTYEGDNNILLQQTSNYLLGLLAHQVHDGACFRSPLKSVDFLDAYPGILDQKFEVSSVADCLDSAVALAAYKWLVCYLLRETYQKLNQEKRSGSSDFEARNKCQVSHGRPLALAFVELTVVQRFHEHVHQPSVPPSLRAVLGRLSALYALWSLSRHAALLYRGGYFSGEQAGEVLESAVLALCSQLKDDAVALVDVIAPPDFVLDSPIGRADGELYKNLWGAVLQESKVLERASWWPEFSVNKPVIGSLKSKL
# [3] = biological target: Mitogen-activated protein kinase kinase kinase 4 (Homo sapiens, UniProt Q9Y6R4)
# [4] = biological target: Insulin-like growth factor 1 receptor (Homo sapiens, UniProt P08069)
# [5] = biological target: S-adenosylmethionine synthase isoform type-2 (Homo sapiens, UniProt P31153)
# [6] = biological target: Maternal embryonic leucine zipper kinase (Homo sapiens, UniProt Q14680)
# [7] = biological target: Mitogen-activated protein kinase 11 (Homo sapiens, UniProt Q15759)
# [8] = biological target: RAC-gamma serine/threonine-protein kinase (Homo sapiens, UniProt Q9Y243)
# [9] = biological target: Eukaryotic translation initiation factor 2-alpha kinase 1 (Homo sapiens, UniProt Q9BQI3)
# [10] = biological target: T2, Beta-adrenergic receptor kinase 1 (Homo sapiens, UniProt P25098)
# T2 sequence (P25098 whole entry): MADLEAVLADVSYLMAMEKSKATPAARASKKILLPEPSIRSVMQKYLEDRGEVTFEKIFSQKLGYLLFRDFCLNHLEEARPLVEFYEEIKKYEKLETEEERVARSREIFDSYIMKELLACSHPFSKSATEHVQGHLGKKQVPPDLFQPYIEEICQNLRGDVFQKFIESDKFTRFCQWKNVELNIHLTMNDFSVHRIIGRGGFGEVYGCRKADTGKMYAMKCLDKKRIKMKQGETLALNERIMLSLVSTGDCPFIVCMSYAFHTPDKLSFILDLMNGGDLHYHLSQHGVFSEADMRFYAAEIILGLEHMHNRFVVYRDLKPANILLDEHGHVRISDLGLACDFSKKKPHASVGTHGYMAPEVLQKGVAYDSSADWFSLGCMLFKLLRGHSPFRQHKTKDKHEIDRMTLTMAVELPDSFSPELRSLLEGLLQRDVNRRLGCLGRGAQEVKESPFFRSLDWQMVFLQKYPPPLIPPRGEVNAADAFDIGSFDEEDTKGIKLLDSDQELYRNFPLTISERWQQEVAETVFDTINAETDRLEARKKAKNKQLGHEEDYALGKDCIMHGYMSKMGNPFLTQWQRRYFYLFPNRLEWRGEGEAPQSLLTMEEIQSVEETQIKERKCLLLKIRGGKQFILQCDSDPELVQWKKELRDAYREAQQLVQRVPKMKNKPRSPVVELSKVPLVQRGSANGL
# Further: in the data inactive means no Kd found up to 30 µM.
# Eukaryotic translation initiation factor 2-alpha kinase 1, sequence (Q9BQI3 whole entry): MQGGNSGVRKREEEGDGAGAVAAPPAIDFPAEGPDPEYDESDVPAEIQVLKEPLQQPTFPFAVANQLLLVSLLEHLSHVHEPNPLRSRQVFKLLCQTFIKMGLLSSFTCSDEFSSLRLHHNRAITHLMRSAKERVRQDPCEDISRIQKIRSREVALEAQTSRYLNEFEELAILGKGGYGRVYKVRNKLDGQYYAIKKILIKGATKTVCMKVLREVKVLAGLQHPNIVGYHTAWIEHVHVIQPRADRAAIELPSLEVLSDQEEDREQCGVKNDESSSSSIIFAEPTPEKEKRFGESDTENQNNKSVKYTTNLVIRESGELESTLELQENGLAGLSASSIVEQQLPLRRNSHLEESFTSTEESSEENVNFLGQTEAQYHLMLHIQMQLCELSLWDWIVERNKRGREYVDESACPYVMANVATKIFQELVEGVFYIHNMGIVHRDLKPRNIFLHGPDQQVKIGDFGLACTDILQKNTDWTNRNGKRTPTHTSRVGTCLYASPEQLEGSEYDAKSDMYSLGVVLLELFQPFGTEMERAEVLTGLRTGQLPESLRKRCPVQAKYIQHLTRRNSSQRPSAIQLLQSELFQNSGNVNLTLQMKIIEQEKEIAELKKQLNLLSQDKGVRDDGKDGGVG
# Maternal embryonic leucine zipper kinase, sequence (Q14680 whole entry): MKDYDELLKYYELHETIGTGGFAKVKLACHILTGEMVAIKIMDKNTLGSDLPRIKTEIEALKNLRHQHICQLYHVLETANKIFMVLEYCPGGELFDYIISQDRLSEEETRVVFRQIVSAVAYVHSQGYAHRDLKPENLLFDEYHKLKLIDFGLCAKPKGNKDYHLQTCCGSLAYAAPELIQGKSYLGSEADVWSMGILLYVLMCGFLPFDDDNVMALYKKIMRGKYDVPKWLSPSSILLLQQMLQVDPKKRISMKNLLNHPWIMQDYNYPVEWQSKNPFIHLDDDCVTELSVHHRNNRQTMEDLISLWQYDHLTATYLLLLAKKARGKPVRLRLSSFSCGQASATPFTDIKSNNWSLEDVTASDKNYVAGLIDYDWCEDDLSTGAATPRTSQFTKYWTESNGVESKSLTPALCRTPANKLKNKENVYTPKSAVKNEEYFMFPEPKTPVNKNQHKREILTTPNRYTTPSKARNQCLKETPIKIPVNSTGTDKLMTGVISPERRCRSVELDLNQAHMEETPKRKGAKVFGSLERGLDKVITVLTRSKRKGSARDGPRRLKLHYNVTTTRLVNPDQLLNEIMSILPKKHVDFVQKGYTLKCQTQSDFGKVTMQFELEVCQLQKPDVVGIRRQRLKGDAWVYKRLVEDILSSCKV
# Mitogen-activated protein kinase 11, sequence (Q15759 whole entry): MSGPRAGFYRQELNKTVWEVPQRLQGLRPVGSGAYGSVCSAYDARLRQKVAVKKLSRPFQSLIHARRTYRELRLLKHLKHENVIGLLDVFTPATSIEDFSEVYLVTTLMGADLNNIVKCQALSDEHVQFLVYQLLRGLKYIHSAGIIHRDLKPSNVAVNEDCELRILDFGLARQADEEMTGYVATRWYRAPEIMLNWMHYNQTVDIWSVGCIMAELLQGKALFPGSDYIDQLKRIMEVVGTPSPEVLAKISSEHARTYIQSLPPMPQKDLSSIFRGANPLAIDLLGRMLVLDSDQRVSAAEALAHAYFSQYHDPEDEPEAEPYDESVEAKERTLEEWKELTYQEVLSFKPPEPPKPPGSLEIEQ
# Non-receptor tyrosine-protein kinase TYK2, sequence (P29597 whole entry): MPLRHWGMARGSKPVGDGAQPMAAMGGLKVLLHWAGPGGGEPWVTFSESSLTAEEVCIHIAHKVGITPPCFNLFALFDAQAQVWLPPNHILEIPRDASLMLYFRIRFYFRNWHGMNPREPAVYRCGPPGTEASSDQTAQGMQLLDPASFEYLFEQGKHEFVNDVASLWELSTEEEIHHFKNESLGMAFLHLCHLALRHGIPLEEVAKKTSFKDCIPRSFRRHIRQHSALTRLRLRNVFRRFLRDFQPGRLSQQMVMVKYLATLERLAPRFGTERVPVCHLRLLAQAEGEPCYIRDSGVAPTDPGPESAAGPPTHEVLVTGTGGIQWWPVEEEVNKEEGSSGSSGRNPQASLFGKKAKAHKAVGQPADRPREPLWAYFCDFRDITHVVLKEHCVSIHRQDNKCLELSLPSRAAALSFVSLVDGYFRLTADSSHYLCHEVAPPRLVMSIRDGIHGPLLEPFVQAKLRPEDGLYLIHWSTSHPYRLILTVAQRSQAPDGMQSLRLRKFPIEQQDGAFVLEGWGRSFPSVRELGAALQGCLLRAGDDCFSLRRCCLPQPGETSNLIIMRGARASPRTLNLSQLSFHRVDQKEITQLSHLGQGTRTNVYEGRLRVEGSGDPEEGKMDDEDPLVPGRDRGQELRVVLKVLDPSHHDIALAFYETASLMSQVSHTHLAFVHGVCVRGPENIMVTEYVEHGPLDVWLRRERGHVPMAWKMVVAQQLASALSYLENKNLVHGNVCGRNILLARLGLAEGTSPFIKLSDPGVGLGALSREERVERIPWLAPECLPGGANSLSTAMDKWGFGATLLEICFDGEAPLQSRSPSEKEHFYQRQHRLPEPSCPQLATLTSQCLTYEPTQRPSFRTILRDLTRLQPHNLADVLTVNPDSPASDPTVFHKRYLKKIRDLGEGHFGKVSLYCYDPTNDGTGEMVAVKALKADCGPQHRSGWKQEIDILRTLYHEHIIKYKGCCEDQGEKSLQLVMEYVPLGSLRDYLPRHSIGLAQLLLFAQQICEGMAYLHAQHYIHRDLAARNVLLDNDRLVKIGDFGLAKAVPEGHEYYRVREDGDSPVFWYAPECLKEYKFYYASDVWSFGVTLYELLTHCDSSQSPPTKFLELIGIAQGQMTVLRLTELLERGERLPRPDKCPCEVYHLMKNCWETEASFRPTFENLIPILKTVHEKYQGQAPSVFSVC
# S-adenosylmethionine synthase isoform type-2, sequence (P31153 whole entry, canonical isoform): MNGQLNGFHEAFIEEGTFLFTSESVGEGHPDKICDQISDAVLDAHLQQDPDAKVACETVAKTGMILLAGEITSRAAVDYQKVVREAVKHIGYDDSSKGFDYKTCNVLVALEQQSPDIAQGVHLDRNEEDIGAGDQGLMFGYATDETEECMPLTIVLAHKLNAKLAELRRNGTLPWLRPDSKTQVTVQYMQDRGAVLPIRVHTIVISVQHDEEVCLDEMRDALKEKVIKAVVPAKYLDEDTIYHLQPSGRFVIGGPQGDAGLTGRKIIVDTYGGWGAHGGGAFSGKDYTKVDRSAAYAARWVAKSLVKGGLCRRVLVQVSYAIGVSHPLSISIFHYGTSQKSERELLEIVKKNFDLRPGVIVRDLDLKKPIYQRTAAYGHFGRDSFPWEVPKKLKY
# Mitogen-activated protein kinase kinase kinase 4, sequence (Q9Y6R4 whole entry): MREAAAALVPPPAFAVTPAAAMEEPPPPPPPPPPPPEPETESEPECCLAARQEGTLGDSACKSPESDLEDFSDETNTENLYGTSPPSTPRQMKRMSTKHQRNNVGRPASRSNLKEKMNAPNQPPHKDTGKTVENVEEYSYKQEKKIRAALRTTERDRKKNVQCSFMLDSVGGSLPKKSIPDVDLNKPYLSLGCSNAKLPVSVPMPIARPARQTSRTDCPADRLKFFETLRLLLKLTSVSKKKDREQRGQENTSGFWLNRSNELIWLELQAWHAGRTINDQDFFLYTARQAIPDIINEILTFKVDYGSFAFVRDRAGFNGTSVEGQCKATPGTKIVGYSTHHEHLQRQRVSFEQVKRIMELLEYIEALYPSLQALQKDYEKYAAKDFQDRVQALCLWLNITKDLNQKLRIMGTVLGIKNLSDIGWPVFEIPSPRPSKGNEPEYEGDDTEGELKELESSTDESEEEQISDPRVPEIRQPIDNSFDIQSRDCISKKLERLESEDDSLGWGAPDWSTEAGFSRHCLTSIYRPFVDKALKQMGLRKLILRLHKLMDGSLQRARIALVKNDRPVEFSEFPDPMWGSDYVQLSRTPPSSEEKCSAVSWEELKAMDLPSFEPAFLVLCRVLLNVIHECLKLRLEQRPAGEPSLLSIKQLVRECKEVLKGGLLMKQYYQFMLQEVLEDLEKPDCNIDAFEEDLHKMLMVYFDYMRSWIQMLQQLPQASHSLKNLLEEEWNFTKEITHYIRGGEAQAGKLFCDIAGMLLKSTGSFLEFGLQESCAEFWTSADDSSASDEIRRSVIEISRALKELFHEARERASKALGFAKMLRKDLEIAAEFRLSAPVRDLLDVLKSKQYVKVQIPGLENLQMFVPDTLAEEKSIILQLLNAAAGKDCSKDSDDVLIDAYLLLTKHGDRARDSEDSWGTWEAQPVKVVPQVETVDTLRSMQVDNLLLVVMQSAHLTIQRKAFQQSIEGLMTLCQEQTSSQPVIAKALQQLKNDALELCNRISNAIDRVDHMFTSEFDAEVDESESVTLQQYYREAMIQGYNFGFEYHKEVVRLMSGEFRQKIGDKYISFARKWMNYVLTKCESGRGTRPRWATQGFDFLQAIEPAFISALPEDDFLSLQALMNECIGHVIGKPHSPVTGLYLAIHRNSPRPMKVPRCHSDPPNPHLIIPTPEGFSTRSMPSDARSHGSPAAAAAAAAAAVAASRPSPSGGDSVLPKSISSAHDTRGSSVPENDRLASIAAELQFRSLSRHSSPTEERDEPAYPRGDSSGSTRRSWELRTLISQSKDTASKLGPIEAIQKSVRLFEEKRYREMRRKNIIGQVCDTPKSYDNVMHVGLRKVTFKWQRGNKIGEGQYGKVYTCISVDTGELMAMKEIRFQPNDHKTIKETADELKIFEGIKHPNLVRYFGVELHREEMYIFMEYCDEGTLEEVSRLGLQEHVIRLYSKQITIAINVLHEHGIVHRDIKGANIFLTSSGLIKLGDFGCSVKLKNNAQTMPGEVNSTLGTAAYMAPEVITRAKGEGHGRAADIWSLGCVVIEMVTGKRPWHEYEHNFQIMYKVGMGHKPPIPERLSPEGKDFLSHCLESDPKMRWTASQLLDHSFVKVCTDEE
Structure (SMILES),Kd [1],Kd [2],Kd [3],Kd [4],Kd [5],Kd [6],Kd [7],Kd [8],Kd [9],Kd [10],pKd [8]
CN1CCC(CNc2ccc3ncc(-c4cccc(OC(F)(F)F)c4)n3n2)CC1 [SGI-1776],> 30 µM (inactive),> 30 µM (inactive),> 30 µM (inactive),> 30 µM (inactive),> 30 µM (inactive),> 30 µM (inactive),> 30 µM (inactive),> 30 µM (inactive),> 30 µM (inactive),> 30 µM (inactive),
CC(C)Nc1cc(-c2c[nH]c(C(=O)N[C@H](CO)c3cccc(Cl)c3)c2)c(Cl)cn1 [ULIXERTINIB],> 30 µM (inactive),> 30 µM (inactive),> 30 µM (inactive),> 30 µM (inactive),> 30 µM (inactive),> 30 µM (inactive),> 30 µM (inactive),> 30 µM (inactive),> 30 µM (inactive),> 30 µM (inactive),
CC[C@@H]1C(=O)N(C)c2cnc(Nc3ccc(C(=O)N[C@H]4CC[C@H](N5CCN(CC6CC6)CC5)CC4)cc3OC)nc2N1C(C)C [VOLASERTIB],> 30 µM (inactive),> 30 µM (inactive),> 30 µM (inactive),> 30 µM (inactive),> 30 µM (inactive),> 30 µM (inactive),> 30 µM (inactive),> 30 µM (inactive),> 30 µM (inactive),> 30 µM (inactive),
CN1CC[C@@H](c2c(O)cc(O)c3c(=O)cc(-c4ccccc4Cl)oc23)[C@@H]1CO,> 30 µM (inactive),> 30 µM (inactive),> 30 µM (inactive),> 30 µM (inactive),> 30 µM (inactive),> 30 µM (inactive),> 30 µM (inactive),,> 30 µM (inactive),> 30 µM (inactive),5.23
Cc1ccc(S(=O)(=O)Nc2nc3ccccc3nc2Nc2ccc3nsnc3c2)cc1,> 30 µM (inactive),> 30 µM (inactive),> 30 µM (inactive),> 30 µM (inactive),> 30 µM (inactive),> 30 µM (inactive),> 30 µM (inactive),> 30 µM (inactive),> 30 µM (inactive),> 30 µM (inactive),
COc1cc2nccc(Oc3ccc(NC(=O)NC4CC4)c(Cl)c3)c2cc1C(N)=O [LENVATINIB],> 30 µM (inactive),> 30 µM (inactive),> 30 µM (inactive),> 30 µM (inactive),> 30 µM (inactive),> 30 µM (inactive),> 30 µM (inactive),> 30 µM (inactive),> 30 µM (inactive),> 30 µM (inactive),
COC(=O)N[C@@H](C)CNc1nccc(-c2cn(C(C)C)nc2-c2cc(Cl)cc(NS(C)(=O)=O)c2F)n1 [ENCORAFENIB],> 30 µM (inactive),> 30 µM (inactive),1.44 µM (active),> 30 µM (inactive),> 30 µM (inactive),> 30 µM (inactive),> 30 µM (inactive),> 30 µM (inactive),> 30 µM (inactive),> 30 µM (inactive),
COCCNCc1ccc(-c2cc3nccc(Oc4ccc(NC(=S)NC(=O)Cc5ccc(F)cc5)cc4F)c3s2)nc1 [GLESATINIB],> 30 µM (inactive),> 30 µM (inactive),> 30 µM (inactive),> 30 µM (inactive),> 30 µM (inactive),> 30 µM (inactive),> 30 µM (inactive),> 30 µM (inactive),> 30 µM (inactive),> 30 µM (inactive),
CCS(=O)(=O)N1CC(CC#N)(n2cc(-c3ncnc4[nH]ccc34)cn2)C1 [BARICITINIB],> 30 µM (inactive),> 30 µM (inactive),> 30 µM (inactive),> 30 µM (inactive),> 30 µM (inactive),> 30 µM (inactive),> 30 µM (inactive),> 30 µM (inactive),0.335 µM (active),> 30 µM (inactive),
CO[C@H]1C[C@@H]2CC[C@@H](C)[C@@](O)(O2)C(=O)C(=O)N2CCCC[C@H]2C(=O)O[C@H]([C@H](C)C[C@@H]2CC[C@@H](OCCO)[C@H](OC)C2)CC(=O)[C@H](C)/C=C(\C)[C@@H](O)[C@@H](OC)C(=O)[C@H](C)C[C@H](C)/C=C/C=C/C=C/1C [EVEROLIMUS],> 30 µM (inactive),> 30 µM (inactive),> 30 µM (inactive),> 30 µM (inactive),> 30 µM (inactive),> 30 µM (inactive),> 30 µM (inactive),> 30 µM (inactive),> 30 µM (inactive),> 30 µM (inactive),
CCN1CCN(Cc2ccc(-c3cc4c(N[C@H](C)c5ccccc5)ncnc4[nH]3)cc2)CC1 [AEE-788],> 30 µM (inactive),> 30 µM (inactive),2.19 µM (active),> 30 µM (inactive),> 30 µM (inactive),> 30 µM (inactive),> 30 µM (inactive),> 30 µM (inactive),> 30 µM (inactive),> 30 µM (inactive),
CC(=O)Nc1cccc(-n2c(=O)n(C3CC3)c(=O)c3c(Nc4ccc(I)cc4F)n(C)c(=O)c(C)c32)c1 [TRAMETINIB],> 30 µM (inactive),> 30 µM (inactive),> 30 µM (inactive),> 30 µM (inactive),> 30 µM (inactive),> 30 µM (inactive),> 30 µM (inactive),> 30 µM (inactive),> 30 µM (inactive),> 30 µM (inactive),
O=C(O)[C@]1(Cc2cccc(Nc3nccs3)n2)CC[C@@H](Oc2cccc(Cl)c2F)CC1 [MK-5108],> 30 µM (inactive),> 30 µM (inactive),> 30 µM (inactive),> 30 µM (inactive),> 30 µM (inactive),> 30 µM (inactive),> 30 µM (inactive),> 30 µM (inactive),> 30 µM (inactive),> 30 µM (inactive),
N[C@@H]1CCCN(c2c(/C=C3\SC(=O)NC3=O)cccc2-c2ccccc2)C1,> 30 µM (inactive),> 30 µM (inactive),> 30 µM (inactive),> 30 µM (inactive),> 30 µM (inactive),> 30 µM (inactive),> 30 µM (inactive),> 30 µM (inactive),> 30 µM (inactive),> 30 µM (inactive),
O=C(Nc1ccc(-c2ccnc(Nc3ccc(N4CCOCC4)cc3)n2)cc1)C1CCCN1 (stereo not given) [XL-019],> 30 µM (inactive),> 30 µM (inactive),> 30 µM (inactive),> 30 µM (inactive),> 30 µM (inactive),> 30 µM (inactive),> 30 µM (inactive),> 30 µM (inactive),> 30 µM (inactive),> 30 µM (inactive),
O=C(c1ccc(F)c(F)c1Nc1ccc(I)cc1F)N1CC(O)([C@@H]2CCCCN2)C1 [COBIMETINIB],> 30 µM (inactive),> 30 µM (inactive),> 30 µM (inactive),> 30 µM (inactive),> 30 µM (inactive),> 30 µM (inactive),> 30 µM (inactive),> 30 µM (inactive),> 30 µM (inactive),> 30 µM (inactive),
Cc1cc(-c2cc(O)ccc2Cl)cc2nnc(Nc3ccc(OCCN4CCCC4)cc3)nc12,0.0007 µM (active),> 30 µM (inactive),> 30 µM (inactive),> 30 µM (inactive),> 30 µM (inactive),> 30 µM (inactive),> 30 µM (inactive),> 30 µM (inactive),> 30 µM (inactive),> 30 µM (inactive),
